Laboratory results taken from ChEMBL document CHEMBL5653615 (J Biol Chem, 2013).

How the values were obtained:
[1] = biological target: Calcium/calmodulin-dependent protein kinase type 1D (Homo sapiens) (UniProt Q8IU85); assay: Inhibition of human CAMK1d at 500 nM by HotSpot assay relative to control
[2] = biological target: T1, Serine/threonine-protein kinase Chk1 (Homo sapiens) (UniProt O14757); assay: Inhibition of human CHK1 at 500 nM by HotSpot assay relative to control
T1 sequence (whole entry): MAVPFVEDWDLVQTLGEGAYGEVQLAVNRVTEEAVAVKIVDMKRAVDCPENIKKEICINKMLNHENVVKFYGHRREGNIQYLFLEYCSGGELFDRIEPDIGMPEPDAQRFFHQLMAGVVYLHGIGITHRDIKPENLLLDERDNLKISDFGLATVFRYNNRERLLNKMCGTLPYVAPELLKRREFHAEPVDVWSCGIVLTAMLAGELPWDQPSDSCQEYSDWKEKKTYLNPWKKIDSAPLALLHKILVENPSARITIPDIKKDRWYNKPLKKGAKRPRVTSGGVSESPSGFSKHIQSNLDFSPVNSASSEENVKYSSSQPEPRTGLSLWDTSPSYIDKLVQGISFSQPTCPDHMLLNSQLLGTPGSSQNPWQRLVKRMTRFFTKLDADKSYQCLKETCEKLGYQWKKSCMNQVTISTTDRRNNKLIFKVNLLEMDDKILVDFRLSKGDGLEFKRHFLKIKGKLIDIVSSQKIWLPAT

[3] = biological target: Casein kinase I isoform gamma-2 (Homo sapiens) (UniProt P78368); assay: Inhibition of human CK1g2 at 500 nM by HotSpot assay relative to control
[4] = biological target: T2, Serine/threonine-protein kinase 17A (Homo sapiens) (UniProt Q9UEE5); assay: Inhibition of human DRAK1 at 500 nM by HotSpot assay relative to control
T2 sequence (whole entry): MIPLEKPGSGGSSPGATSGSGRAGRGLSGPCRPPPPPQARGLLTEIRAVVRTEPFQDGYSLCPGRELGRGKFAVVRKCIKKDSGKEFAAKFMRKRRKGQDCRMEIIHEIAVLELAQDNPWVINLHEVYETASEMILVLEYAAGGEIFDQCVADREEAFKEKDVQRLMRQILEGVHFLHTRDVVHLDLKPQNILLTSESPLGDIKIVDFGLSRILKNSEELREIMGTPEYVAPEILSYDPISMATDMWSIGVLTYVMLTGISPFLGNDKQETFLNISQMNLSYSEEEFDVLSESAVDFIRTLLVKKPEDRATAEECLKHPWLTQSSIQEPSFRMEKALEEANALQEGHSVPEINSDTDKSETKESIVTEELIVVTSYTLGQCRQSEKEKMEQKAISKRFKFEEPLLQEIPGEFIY

[5] = biological target: Focal adhesion kinase 1 (Homo sapiens) (UniProt Q05397); assay: Inhibition of human FAK at 500 nM by HotSpot assay relative to control
[6] = biological target: T3, Serine/threonine-protein kinase STK11 (Homo sapiens) (UniProt Q15831); assay: Inhibition of human LKB1 at 500 nM by HotSpot assay relative to control
T3 sequence (whole entry): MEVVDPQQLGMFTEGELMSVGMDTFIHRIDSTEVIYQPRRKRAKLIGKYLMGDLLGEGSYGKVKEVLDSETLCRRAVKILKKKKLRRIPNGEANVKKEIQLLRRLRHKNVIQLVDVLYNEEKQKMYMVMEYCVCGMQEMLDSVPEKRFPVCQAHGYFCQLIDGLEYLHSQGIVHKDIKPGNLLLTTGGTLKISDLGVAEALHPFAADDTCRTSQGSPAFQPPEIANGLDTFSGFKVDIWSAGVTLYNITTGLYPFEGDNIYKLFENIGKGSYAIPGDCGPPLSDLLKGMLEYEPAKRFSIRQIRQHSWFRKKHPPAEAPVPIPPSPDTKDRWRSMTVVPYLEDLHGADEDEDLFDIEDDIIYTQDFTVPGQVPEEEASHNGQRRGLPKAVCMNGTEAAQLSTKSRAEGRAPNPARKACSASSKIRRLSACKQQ

[7] = biological target: Tyrosine-protein kinase Lyn (Homo sapiens) (UniProt P07948); assay: Inhibition of human LYN B at 500 nM by HotSpot assay relative to control
[8] = biological target: Misshapen-like kinase 1 (Homo sapiens) (UniProt Q8N4C8); assay: Inhibition of human MINK1 at 500 nM by HotSpot assay relative to control
[9] = biological target: Serine/threonine-protein kinase MRCK alpha (Homo sapiens) (UniProt Q5VT25); assay: Inhibition of human CDC42BPA at 500 nM by HotSpot assay relative to control
[10] = biological target: Serine/threonine-protein kinase 24 (Homo sapiens) (UniProt Q9Y6E0); assay: Inhibition of human STK24 at 500 nM by HotSpot assay relative to control
[11] = biological target: T4, 3-phosphoinositide-dependent protein kinase 1 (Homo sapiens) (UniProt O15530); assay: Inhibition of human PDPK1 at 500 nM by HotSpot assay relative to control
T4 sequence (whole entry): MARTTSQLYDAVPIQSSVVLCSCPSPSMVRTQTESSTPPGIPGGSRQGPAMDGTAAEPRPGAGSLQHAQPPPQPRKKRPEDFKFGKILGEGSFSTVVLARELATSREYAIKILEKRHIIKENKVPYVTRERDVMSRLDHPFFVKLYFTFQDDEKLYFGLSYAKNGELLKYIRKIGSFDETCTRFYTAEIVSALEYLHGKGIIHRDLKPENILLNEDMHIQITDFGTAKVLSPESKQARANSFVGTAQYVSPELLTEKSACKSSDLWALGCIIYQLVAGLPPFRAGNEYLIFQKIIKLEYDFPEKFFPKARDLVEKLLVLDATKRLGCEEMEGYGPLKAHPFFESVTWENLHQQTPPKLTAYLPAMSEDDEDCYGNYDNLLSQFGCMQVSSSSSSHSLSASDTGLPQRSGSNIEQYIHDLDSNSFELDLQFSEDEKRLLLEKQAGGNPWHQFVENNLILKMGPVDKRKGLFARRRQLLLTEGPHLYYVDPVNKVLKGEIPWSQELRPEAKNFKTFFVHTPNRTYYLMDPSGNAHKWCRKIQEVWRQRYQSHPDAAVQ

[12] = biological target: Serine/threonine-protein kinase pim-3 (Homo sapiens) (UniProt Q86V86); assay: Inhibition of human PIM3 at 500 nM by HotSpot assay relative to control
[13] = biological target: Tyrosine-protein kinase SYK (Homo sapiens) (UniProt P43405); assay: Inhibition of human SYK at 500 nM by HotSpot assay relative to control
[14] = biological target: Angiopoietin-1 receptor (Homo sapiens) (UniProt Q02763); assay: Inhibition of human TEK at 500 nM by HotSpot assay relative to control
[15] = biological target: Death-associated protein kinase 3 (Homo sapiens) (UniProt O43293); assay: Inhibition of human DAPK3 at 500 nM by HotSpot assay relative to control

Tyrosine-protein kinase Lyn (Homo sapiens), sequence (P07948 2-512 limits assumed): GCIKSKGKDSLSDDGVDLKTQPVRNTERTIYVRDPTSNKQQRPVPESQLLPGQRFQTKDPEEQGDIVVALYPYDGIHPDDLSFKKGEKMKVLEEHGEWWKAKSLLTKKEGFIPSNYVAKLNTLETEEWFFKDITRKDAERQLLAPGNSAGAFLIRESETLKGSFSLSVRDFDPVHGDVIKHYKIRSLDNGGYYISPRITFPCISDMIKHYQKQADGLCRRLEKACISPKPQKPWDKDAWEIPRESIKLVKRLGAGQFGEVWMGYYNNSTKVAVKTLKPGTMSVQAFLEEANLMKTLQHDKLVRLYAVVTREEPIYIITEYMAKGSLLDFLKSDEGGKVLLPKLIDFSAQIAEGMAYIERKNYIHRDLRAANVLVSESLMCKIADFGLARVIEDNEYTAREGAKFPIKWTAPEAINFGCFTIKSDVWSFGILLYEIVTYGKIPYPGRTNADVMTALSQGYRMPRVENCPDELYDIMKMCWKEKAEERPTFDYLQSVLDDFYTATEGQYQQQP
Misshapen-like kinase 1 (Homo sapiens), sequence (Q8N4C8 whole entry, looked up): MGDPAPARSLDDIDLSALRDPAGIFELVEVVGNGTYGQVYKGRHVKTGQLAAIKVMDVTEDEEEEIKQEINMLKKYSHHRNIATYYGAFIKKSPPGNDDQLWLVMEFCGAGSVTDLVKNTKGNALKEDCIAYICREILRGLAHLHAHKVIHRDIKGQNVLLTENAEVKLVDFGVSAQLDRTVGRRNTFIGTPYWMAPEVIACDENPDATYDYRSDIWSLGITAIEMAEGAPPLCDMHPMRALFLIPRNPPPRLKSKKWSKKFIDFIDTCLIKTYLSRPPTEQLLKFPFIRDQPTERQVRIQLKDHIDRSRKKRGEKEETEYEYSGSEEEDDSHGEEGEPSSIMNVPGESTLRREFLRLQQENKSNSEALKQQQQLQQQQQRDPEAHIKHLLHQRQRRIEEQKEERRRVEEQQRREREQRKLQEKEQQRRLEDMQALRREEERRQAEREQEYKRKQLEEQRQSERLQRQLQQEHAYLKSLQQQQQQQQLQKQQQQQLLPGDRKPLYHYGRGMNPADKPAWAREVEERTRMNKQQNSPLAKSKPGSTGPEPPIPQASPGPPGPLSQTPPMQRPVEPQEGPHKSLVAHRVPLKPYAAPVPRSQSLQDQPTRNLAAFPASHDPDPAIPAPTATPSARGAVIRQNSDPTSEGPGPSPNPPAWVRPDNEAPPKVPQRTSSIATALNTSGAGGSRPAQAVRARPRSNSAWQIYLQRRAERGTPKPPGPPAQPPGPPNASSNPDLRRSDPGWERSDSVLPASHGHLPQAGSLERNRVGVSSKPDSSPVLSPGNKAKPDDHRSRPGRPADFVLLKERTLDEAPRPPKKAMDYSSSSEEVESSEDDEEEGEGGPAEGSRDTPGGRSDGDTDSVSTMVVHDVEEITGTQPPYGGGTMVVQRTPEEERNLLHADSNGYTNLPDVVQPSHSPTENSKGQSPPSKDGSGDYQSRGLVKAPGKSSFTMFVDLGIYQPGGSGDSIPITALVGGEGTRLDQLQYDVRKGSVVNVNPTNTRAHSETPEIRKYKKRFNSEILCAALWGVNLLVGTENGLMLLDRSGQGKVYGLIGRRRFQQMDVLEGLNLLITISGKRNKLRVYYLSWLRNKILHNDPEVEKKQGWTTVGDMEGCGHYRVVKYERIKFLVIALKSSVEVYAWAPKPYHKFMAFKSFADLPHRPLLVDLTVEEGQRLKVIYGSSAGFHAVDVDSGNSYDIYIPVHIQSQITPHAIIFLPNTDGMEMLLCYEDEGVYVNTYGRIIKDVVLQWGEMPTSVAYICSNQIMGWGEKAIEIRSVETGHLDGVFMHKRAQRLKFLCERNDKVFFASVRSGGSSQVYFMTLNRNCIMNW
Angiopoietin-1 receptor (Homo sapiens), sequence (Q02763 whole entry): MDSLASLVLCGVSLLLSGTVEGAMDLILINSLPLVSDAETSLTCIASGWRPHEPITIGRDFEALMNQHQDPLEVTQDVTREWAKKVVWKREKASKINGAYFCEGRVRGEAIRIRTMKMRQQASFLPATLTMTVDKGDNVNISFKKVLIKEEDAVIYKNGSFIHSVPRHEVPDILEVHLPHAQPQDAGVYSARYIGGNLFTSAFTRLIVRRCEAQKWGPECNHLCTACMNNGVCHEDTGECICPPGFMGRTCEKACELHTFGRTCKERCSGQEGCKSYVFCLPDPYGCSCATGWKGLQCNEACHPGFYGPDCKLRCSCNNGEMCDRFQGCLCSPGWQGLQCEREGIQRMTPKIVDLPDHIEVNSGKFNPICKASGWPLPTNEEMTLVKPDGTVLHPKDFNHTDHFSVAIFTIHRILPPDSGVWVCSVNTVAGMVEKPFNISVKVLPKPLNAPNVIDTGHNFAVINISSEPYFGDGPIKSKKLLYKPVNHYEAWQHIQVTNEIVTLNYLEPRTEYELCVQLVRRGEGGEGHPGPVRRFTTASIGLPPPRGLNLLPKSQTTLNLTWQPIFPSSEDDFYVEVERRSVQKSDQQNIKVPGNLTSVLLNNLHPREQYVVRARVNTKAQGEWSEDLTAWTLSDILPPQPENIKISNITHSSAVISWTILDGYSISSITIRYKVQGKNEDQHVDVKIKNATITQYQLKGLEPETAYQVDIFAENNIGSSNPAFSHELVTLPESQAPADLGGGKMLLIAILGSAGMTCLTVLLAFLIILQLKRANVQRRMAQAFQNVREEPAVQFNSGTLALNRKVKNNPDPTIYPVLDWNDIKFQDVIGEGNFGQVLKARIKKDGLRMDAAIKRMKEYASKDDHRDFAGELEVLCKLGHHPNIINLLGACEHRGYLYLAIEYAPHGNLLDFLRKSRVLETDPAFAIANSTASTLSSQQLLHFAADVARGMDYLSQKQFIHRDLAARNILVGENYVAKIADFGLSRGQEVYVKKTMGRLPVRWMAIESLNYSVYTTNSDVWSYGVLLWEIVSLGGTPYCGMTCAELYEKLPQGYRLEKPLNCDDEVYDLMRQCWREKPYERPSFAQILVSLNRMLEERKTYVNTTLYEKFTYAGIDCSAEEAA
Calcium/calmodulin-dependent protein kinase type 1D (Homo sapiens), sequence (Q8IU85 whole entry, looked up): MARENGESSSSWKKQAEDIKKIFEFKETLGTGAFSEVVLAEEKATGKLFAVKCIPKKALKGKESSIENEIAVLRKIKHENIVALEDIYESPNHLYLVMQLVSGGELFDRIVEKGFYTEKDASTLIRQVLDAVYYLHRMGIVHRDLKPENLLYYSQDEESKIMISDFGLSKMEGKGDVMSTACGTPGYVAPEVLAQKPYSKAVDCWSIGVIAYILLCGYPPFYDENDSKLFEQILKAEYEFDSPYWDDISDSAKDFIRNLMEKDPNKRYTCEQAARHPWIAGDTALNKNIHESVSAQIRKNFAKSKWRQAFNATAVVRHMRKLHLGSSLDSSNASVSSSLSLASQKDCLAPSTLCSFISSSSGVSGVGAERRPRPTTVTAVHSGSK
Focal adhesion kinase 1 (Homo sapiens), sequence (Q05397 2-1052 limits assumed): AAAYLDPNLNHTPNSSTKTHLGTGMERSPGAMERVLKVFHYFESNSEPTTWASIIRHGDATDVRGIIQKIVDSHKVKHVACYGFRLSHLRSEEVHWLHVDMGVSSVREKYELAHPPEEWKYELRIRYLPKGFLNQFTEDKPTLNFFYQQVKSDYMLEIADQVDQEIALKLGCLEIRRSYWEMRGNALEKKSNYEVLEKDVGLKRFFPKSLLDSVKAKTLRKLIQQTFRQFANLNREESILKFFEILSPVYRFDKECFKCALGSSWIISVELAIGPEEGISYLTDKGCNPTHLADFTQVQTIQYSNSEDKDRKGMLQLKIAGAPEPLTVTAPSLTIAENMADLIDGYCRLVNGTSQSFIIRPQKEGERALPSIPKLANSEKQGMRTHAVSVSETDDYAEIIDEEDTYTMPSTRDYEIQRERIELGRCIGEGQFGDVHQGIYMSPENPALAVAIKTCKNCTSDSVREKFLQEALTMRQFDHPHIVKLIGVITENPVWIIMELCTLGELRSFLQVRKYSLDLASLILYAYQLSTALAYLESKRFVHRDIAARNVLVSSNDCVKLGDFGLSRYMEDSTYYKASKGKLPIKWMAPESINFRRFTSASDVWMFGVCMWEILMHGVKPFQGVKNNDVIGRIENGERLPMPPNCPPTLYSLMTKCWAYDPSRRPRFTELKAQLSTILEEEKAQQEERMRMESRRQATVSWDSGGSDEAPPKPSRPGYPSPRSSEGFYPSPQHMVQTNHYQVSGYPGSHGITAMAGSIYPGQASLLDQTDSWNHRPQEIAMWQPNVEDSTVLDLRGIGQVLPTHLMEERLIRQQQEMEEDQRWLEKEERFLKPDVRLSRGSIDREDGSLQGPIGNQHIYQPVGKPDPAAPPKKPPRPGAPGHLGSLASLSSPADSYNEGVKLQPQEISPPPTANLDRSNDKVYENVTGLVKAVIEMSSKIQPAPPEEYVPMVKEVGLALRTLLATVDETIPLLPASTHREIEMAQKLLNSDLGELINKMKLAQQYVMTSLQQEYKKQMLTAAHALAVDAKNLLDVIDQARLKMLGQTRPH

Structure (SMILES) | inhibition [1] [%] | inhibition [2] [%] | inhibition [3] [%] | inhibition [4] [%] | inhibition [5] [%] | inhibition [6] [%] | inhibition [7] [%] | inhibition [8] [%] | inhibition [9] [%] | inhibition [10] [%] | inhibition [11] [%] | inhibition [12] [%] | inhibition [13] [%] | inhibition [14] [%] | inhibition [15] [%]
Nc1n[nH]c2nnc(-c3c(-c4ccccc4)nn4ccccc34)cc12 | 4.06 | -3.37 | -9.31 | 0.09 | 0.84 | 8.15 | 2.89 | 27.1 | 10.3 | 25.4 | -3.56 | -0.43 | 2.6 | 3.45 | -2.11
Oc1n[nH]c2nnc(-c3c(-c4ccccc4)nn4ccccc34)cc12 | -3.04 | -1.38 | 3.49 | -1.05 | -3.2 | 7.3 | 2.89 | 2.28 | 6.74 | -2.3 | 7.43 | -0.71 | 0.47 | 4.05 | -0.67
